From patent US8372889B2, “Methods for modulating metabolism” (Omega Biopharma (I.P.3) Limited, priority 2004, dated 2013)
Structures can show the parent of a compound that is named as a salt.

Columns and labels:
diabetic patients = test: Open-label, randomized trial in diabetes type II patients (Example 4); settings: for 24 h Microalbuminuria, Pre-treatment / FBS (fasting blood sugar), Pre-treatment / FCP (C peptide), Pre-treatment / FINS (fasting insulin), Pre-treatment / HOMA (Homeostasis Model Assessment), Pre-treatment / IGF, Pre-treatment / UA (blood uric acid), Pre-treatment: baseline before the trial treatment
Protocol: A small open-label, randomized trial was carried out at the national reference center for diabetes in China. Sixty patients of both sexes (ages ranged from 30 to 75 years old) diagnosed with diabetes type II were recruited. All subjects were informed and gave their consent to participate. Diabetes was diagnosed based on the WHO criteria set in 1999. […] Patients with the following conditions were excluded from the study: (1) dysfunction of heart, liver and/or kidney; (2) with acute diabetic complications and/or any acute cardiovascular complications or other chronic diseases in the past three months; and (3) pregnancy or nursing.
Patients were divided randomly into four groups of 15 patients each. A control group of subjects was not administered anti-diabetic drugs. The cysteamine alone (DC) group was treated with 540 mg/day of cysteamine hydrochloride. In the Metformin alone (Met) group, the dose of Metformin remained unchanged during the two months period. For the DC+Met group, patients remained on the same dose of Metformin they were originally administered, including an additional 100 mg/day of cysteamine hydrochloride. All patients were subjected to treatments for two months and samples were collected and measured at the beginning of, one month after, and two month after the trial for analysis. The results described herein are derived from the samples collected and measured at the beginning of the first month after the trial.

fat-feed rats = test: Lipids, free fatty acid and uric acid in fat-feed rats (Example 5); type: in vivo, rat; settings: for CH / FFA / HDL / LDL / TG / UA: Mean + STD
GK diabetic rats [1] = test: Glucose tolerance test in GK diabetic rats (Example 3); type: in vivo, rat
Protocol: (§1) Thirty-six Goto-Kakizaki Wistar (GK) rats (purchased from Shanghai Slaccas Laboratory Animal Center) aged about 13 weeks and weighting 321-323 g were acclimated to the animal facility for two weeks in individual cages. Food and water were provided ad libitum.
(§2) The 36 GK rats were divided into 4 groups based on body weight (BW) and plasma glucose level. Group 1 (control, n=10) was treated with saline by gavage (2 ml/rat); Group 2 (DC, n=6) was treated with cysteamine hydrochloride by gavage (22.5 mg/kg BW in 2 ml tap water); Group 3 (Metformin, Met, n=10) was treated with Metformin by gavage (34 mg/kg BW in 2 ml tap water); Group 4 (Met+DC, n=10) was treated with Metformin 34 mg/kg BW/day in 2 ml tap water for the first 10 days and then was treated with both cysteamine hydrochloride 22.5 mg/kg BW plus Metformin 34 mg/kg BW in 2 ml tap water for the second 10 days. All animals were treated at 10:00 for 20 days.
The four groups of animals were kept in the same room (temp 23±3° ., relative humidity 65±1%) in different cages with wire mesh bottoms to reduce coprophagia throughout the experiment. […] Plasma glucose concentrations were determined by Glucotrendr2 equipment (Roche Diagnostics, Basel, Switzerland). Plasma insulin concentrations were determined by radioimmunoassay (Insulin RIA Kit, NO:0410, purchased from Shanghai Radioimmunoassay Research Institution).

glut 4 = glut 4 expression in different tissues of GK diabetic rats (Example 3); type: in vivo, rat; settings: liver, muscles, adipocytes
Protocol: Thirty-six Goto-Kakizaki Wistar (GK) rats (purchased from Shanghai Slaccas Laboratory Animal Center) aged about 13 weeks and weighting 321-323 g were acclimated to the animal facility for two weeks in individual cages. Food and water were provided ad libitum. The 36 GK rats were divided into 4 groups based on body weight (BW) and plasma glucose level. […] Group 2 (DC, n=6) was treated with cysteamine hydrochloride by gavage (22.5 mg/kg BW in 2 ml tap water); […] All animals were treated at 10:00 for 20 days.

normal Wistar rats = test: Fasting plasma glucose and insulin in normal Wistar rats (Example 2); type: in vivo, rat; settings: for Fasting glucose / Fasting insulin: normal Wistar rats, Mean ± STD
Protocol: Thirty-two male Wistar rats (purchased from Shanghai Slaccas Laboratory Animal Center) aged about 13 weeks and weighting around 300 g were acclimated to the animal facility for two weeks in individual cages. Food and water were provided ad libitum. The Wistar rats were divided randomly into 4 groups and each group contained 8 rats. […] All animals were treated at 10:00 for 27 days. The four groups of animals were kept in the same room in different cages with wire mesh bottoms to reduce coprophagia throughout the experiment. […] Plasma glucose concentrations were determined by Glucotrendr2 equipment (Roche Diagnostics, Basel, Switzerland). Plasma insulin concentrations were determined by radioimmunoassay (Insulin RIA Kit, NO:0410, purchased from Shanghai Radioimmunoassay Research Institution). The abbreviation STD denotes the variability of the data about the mean or “standard deviation.” The abbreviation p denotes the level of significance of the results.

GK diabetic rats [2] = test: Plasma insulin and adiponectin in GK diabetic rats (Example 3); type: in vivo, rat
Protocol: as §1, §2
The four groups of animals were kept in the same room (temp 23±3° ., relative humidity 65±1%) in different cages with wire mesh bottoms to reduce coprophagia throughout the experiment. The rats were subjected to fasting overnight from 22:00 to 9:30 of the following day before being subjected to a glucose tolerance test. The rats were treated with glucose 2 g/kg BW in 2 ml tap water at 9:30 for the glucose tolerance test and the blood was collected from the tail vein at 0.5 hr, 1 hr, 2 hr, and 3 hr after glucose injection. Plasma glucose concentrations were determined by Glucotrendr2 equipment (Roche Diagnostics, Basel, Switzerland). Plasma insulin concentrations were determined by radioimmunoassay (Insulin RIA Kit, NO:0410, purchased from Shanghai Radioimmunoassay Research Institution).

[3] = system: Goto-Kakizaki Wistar rats (GK rats); test: Oral glucose tolerance test and starving plasma glucose in GK rats (Example 1); settings: oral Metformin alone
Protocol: Nineteen male Goto-Kakizaki Wistar rats (GK rats) with weights of 300±20 g were kept in steel cages, 3-4 rats per cage. The cages were changed every two days. Indoor temperature and relative humidity was kept at 23±3° . and 65±1% respectively. Feed and drinking water was provided. GK rats were permitted a one-month period for adaptation.
One day prior to experimentation, at 17:00, all of the feed was removed from all groups, but not the drinking water. On the second day, at 09:30, starving plasma glucose was measured for all GK rats. At 10:00, glucose tolerance test (2 g/kg BW) was performed and the plasma glucose level was measured as well for all GK rats. […] On the ninth day, starving plasma glucose was measured and oral glucose tolerance test was performed again for all GK rats in all groups. […]
Six days following the change in regimen, starving plasma glucose was measured and glucose tolerance tests were performed, and blood and tissue samples were collected (liver, duodenum, pancreas gland, fat, and muscle) for all GK rats in all groups. […]
The glucose tolerance tests that were performed included the steps of starving the GK rats overnight. Next day at 09:30, starving plasma glucose was measured. […]

[4] = doses of 11.25 mg/kg and 22.5 mg/kg
[5] = DC15: 15 mg/kg BW by gavage for 27 days
[6] = DC22.5: 22.5 mg/kg BW by gavage for 27 days
[7] = DC30: 30 mg/kg BW by gavage for 27 days
[8] = normal, fasting Wistar rats, 15-30 mg/kg BW

NCCS [cysteamine hydrochloride]
C peptide (CP) (in words) (diabetic patients): decreases significantly | HOMA (Homeostasis Model Assessment) (in words) (diabetic patients): decreases significantly | blood uric acid (UA) levels (in words) (diabetic patients): decreases significantly | fasting insulin (FINS) (in words) (diabetic patients): decreases significantly | insulin-like growth factor 1 (IGF1) (in words) (diabetic patients): decreases significantly | microalbuminuria (in words) (diabetic patients): obvious but not statistically significantly | 24 h Microalbuminuria, Pre-treatment (diabetic patients): 42.73 ± 31.33 | FBS (fasting blood sugar), Pre-treatment (diabetic patients): 7.52 ± 1.57 | FCP (C peptide), Pre-treatment (diabetic patients): 739 ± 183 | FINS (fasting insulin), Pre-treatment (diabetic patients): 35.39 ± 14.43 | HOMA (Homeostasis Model Assessment), Pre-treatment (diabetic patients): 11.94 ± 4.62 | IGF, Pre-treatment (diabetic patients): 49.36 ± 5.75 | UA (blood uric acid), Pre-treatment (diabetic patients): 389 ± 50.98 | LDL (in words) (fat-feed rats): decrease LDL but not significantly | CH (fat-feed rats; DC11.25: 11.25 mg/kg): 1.6 ± 0.31 mmol/L | FFA (fat-feed rats; DC11.25: 11.25 mg/kg): 842 ± 256 µmol/L | HDL (fat-feed rats; DC11.25: 11.25 mg/kg): 1.11 ± 0.16 mmol/L | LDL (fat-feed rats; DC11.25: 11.25 mg/kg): 0.61 ± 0.18 mmol/L | TG (fat-feed rats; DC11.25: 11.25 mg/kg): 1.15 ± 0.12 mmol/L | UA (fat-feed rats; DC11.25: 11.25 mg/kg): 17.41 ± 1.99 mg/L | CH (fat-feed rats; DC22.5: 22.5 mg/kg): 1.55 ± 0.27 mmol/L | FFA (fat-feed rats; DC22.5: 22.5 mg/kg): 1087 ± 181 µmol/L | HDL (fat-feed rats; DC22.5: 22.5 mg/kg): 1.04 ± 0.09 mmol/L | LDL (fat-feed rats; DC22.5: 22.5 mg/kg): 0.63 ± 0.18 mmol/L | TG (fat-feed rats; DC22.5: 22.5 mg/kg): 1.1 ± 0.08 mmol/L | UA (fat-feed rats; DC22.5: 22.5 mg/kg): 16.12 ± 1.04 mg/L | free fatty acid (in words) (fat-feed rats; at doses indicated): significantly decrease | uric acid (in words) (fat-feed rats; at doses indicated): significantly decrease | cholesterol levels (in words) (fat-feed rats; [4]): can decrease | triglyceride levels (in words) (fat-feed rats; [4]): can decrease | HDL (in words) (fat-feed rats; not significantly): trend that cysteamine can increase HDL | Glucose tolerance test, plasma glucose, 2 hr (GK diabetic rats [1]; gavage DC 22.5 mg/kg BW, Metformin 34 mg/kg BW, 20 days, Met+DC: DC added for second 10 days, after glucose 2 g/kg BW, Mean ± STD): 11.00 ± 0.8 mmol/L | glucose levels (in words) (GK diabetic rats [1]; glucose tolerance test, combination compared with Metformin alone, all time points except Fasting): did not affect | expression of total glut4 (in words) (glut 4): significantly increase | Fasting glucose (normal Wistar rats; [5]): 4.05 ± 0.23 | Fasting insulin (normal Wistar rats; [5]): 48.82 ± 3.27 | Fasting glucose (normal Wistar rats; [6]): 3.94 ± 0.27 | Fasting insulin (normal Wistar rats; [6]): 48.39 ± 2.38 | Fasting glucose (normal Wistar rats; [7]): 3.95 ± 0.17 | Fasting insulin (normal Wistar rats; [7]): 51.32 ± 2.94 | blood glucose levels (in words) (normal Wistar rats; [8]): dose-dependent effect on lowering | blood insulin levels (in words) (normal Wistar rats; [8]): does not affect | adiponectin (in words) (GK diabetic rats [2]): significantly increased | insulin levels (in words) (GK diabetic rats [2]): did not affect

CN(C)C(=N)N=C(N)N [Metformin, reference compound]
insulin-like growth factor 1 (IGF1) (in words) (diabetic patients): only a decrease | 24 h Microalbuminuria, Pre-treatment (diabetic patients): 27.5 ± 23.69 | FBS (fasting blood sugar), Pre-treatment (diabetic patients): 8.92 ± 2.7 | FCP (C peptide), Pre-treatment (diabetic patients): 579 ± 212 | FINS (fasting insulin), Pre-treatment (diabetic patients): 19.35 ± 10.2 | HOMA (Homeostasis Model Assessment), Pre-treatment (diabetic patients): 7.33 ± 3.3 | IGF, Pre-treatment (diabetic patients): 52.81 ± 10.04 | UA (blood uric acid), Pre-treatment (diabetic patients): 320 ± 67 | duodenal plasma glucose levels and insulin resistance (in words) [3]: to some extent, lowers | expression of total glut4 (in words) (glut 4): increased, but not significantly | insulin levels (in words) (GK diabetic rats [2]): decreased, but not statistically significant
